Data on one molecule can be found in patent US10300070B2, “Metabolically-activated drug conjugates to overcome resistance in cancer therapy” (The Brigham and Women's Hospital, Inc., priority 2014, dated 2019).

SMILES strings stand for the structures.

For experiment [1], the system named is tumor tissue. Put plainly: Whole tissue glucose levels from tumor homogenate after intratumoral injection. The note with it: docetaxel intratumoral injection, within 12 hours post-administration. It is filed as in vivo, mice. As for the experimental part: (§1) 1 million 4T-1 mouse mammary carcinoma cells suspended in 100 μL PBS were injected per left flank of 5-6 week old Balb/C (heterotopic) or mammary fat pad (orthotopic). Docetaxel (DTX) was dissolved in pure Ethanol at a concentration of 50 mg/ml mixed 1:1 with Polysorbate 80 (Tween 80) and brought to a final working concentration with PBS. Tumor volumes were assessed by the following formula: (Width×Width×length)/2 and values were utilized to calculate tumor specific growth rate (SGR) by the algorhythm (ln [V2/V1]/[t2−t1)] where V=volume and t=time in days^64. For in vivo analysis of 2-NBDG uptake, mice were treated as indicated (i.e. Docetaxel intratumoral or intravenously) and monitored until tumors reached ˜300 mm^3. Subsequently, mice were administered a 10 mg/kg i.v. injection of 2-NBDG 2 hours prior to sacrificing and harvesting tumors for confocal microscopic analysis by frozen section (described below). […] Glucose quantitation (mg/dL) was measured using the onetouch lifescan glucose monitor (Life Scan, Inc. Militipas, Calif.) by calculating mg of glucose per volume of tissue homogenate (in PBS) and normalized as a ratio of mg/dL of glucose to mg of tissue homogenized. Typically, >250 mg of tissue was homogenized in 50 μL of PBS to achieve a readable output.

Experiment [2] has as its system MDA-MB-231 cells. Put plainly: Single cell, real-time assessment of mitochondrial ROS (MitoSox). It is filed as cell-based. The conditions noted are these: docetaxel 50 nM. As for the experimental part:
Single cell analysis was performed as follows: Mitosox Red (Invitrogen, Carlsbad Calif.) was incubated with live parent cells for 30 minutes (5 μM), washed and recovered in phenol red-free DMEM with 2% FBS and treated with docetaxel (50 nM). Equivalent exposure times of immunofluorescent microscopy were used at each interval which was originally set at time 0 against an unstained control cell population. Images were captured by a NIKON Eclipse TI-U microscope with a 20× ELDW or 10× or 40× Plan-Apo objective lens (Nikon, Melville N.Y.) and NIS Elements Viewer version 3.22 (Nikon, Melville N.Y.) imaging software. A negative control (non-transfected) cell subset was used to normalize background and autofluorescence following docetaxel treatment. Individual cells were tracked over time and indications of cell death were noted using a 2 TdT-Fluor In Situ apoptosis detection kit (Trevigen Gaithersburg Md.). Cells were plotted as a function of apoptosis induction (or loss of adherence to culture dish indicating cell death) and changes in Mitosox fluorescence over time as shown in main figures.

The subject of experiment [3] is CD44 and GLUT1. Nature of the experiment: Confocal microscopy of CD44 and GLUT-1 in residual tumors, orthotopic syngeneic mammary carcinoma model (4T-1). It is filed as in vivo, mice. The note with it: 72 hours after docetaxel at MTD (10 mg/kg i.v.) vs vehicle. As for the experimental part: as §1, with “output. […]” for “output.”

Consider `CC(=O)O[C@@]12CO[C@@H]1C[C@H](O)[C@@]1(C)C(=O)[C@H](O)C3=C(C)[C@@H](OC(=O)[C@H](O)[C@@H](NC(=O)OC(C)(C)C)c4ccccc4)C[C@@](O)([C@@H](OC(=O)c4ccccc4)[C@H]21)C3(C)C` [docetaxel], for which the “whole tissue glucose levels in tumor” value in experiment [1] is recorded as “significantly higher”. Moreover, in experiment [2], the “time of mitochondrial ROS burst in cells which survive” value was in the range of 4 to 8 h. The “expression of CD44 and GLUT1 in residual tumors” value in experiment [3] is “enhanced expression of both CD44 and GLUT1”.
